{"source": "patent US12344852B2", "about": "“Control of phenotype in plants” (GREENVENUS, LLC, priority 2016, dated 2025)", "key": {"[1]": {"tested_on": "barstar gene under EcR-based switch", "assay": "barstar expression by qRT-PCR in leaf and floral tissues of ID06 plants", "assay_type": "in vivo, Arabidopsis", "conditions": "250 nM vs water"}, "[2]": {"tested_on": "IP:FT (ID14) transgenic ft mutant Arabidopsis plants", "assay": "Induction of flowering in IP:FT (ID14) transgenic ft mutant plants by ligand spray", "assay_type": "in vivo", "method": "Briefly, the DNA constructs shown in FIG. 3 were transformed into homozygous ft mutant Arabidopsis by flower dipping method. T1 seeds were harvested and germinated in soil. 5 days old T1 seedlings were sprayed with LIBERTY® 280SL herbecide to kill off non-transgenic plants. Selected transgenic plants were analyzed by Bar-specific quantitative PCR (qPCR) to check transgene copy number. Events with low copy number of the transgenes were grown in growth chambers to evaluate phenotypes. […] Select T1 plants were grown to maturity and seeds were used to generate T2 and T3 progeny plants. Further detailed evaluation of the transgenic lines were done in T2 and T3 generation plants (as described in Example 7).\nAt day 11, the ID14 plants produced more flowers and pods while the ft mutant plant just started bolting.\nT2 seeds were harvested from ID14 T1 plants and several experiments were designed to test if the EcR gene switch is tightly controlling the transgenic FT expression in the absence of the activator ligand, and if the switch can be easily turned on by applying the ligand to express enough FT to induce early flowering. T2 seeds from six independent ID14 lines (three with single copy of the transgene and three—with two copies) were planted along with wild-type Arabidopsis and ft mutant and grown under long day (16 hours) and short day (8 hours) photoperiods. Genotype of these T2 plants: homozygous, heterozygous, and null were assessed by TaqMan qPCR as described in Example 7 with the exception of utilizing only the Bar gene-specific primers and probes Bar-F1/Bar-R1/Bar-T1 and the same PDS endogenous control AtPDS-F1/AtPDS-R1/AtPDS-T1. The T2 plants segregated the transgene as a single gene following the Mendelian inheritance.\nThe homozygous plants and null segregants that served as isogenic negative controls were subject to treatment with water (as a control) and 2 concentrations of methoxyfenozide: low (250 nM) and high (2.5 μM). Plants were treated in groups of 2 pots with 5 plants in each at short and long day photoperiods. Treatments were administered every other day starting from day 19 (long day) and 25 (short day) after planting and continued for about three weeks until all plants flowered.\nID14 T2 plants were maintained to maturity and T3 seeds were collected for further characterization of a selected single-copy line ID14-50. The homozygous and null segregant T3 plants along with Arabidopsis ft mutant plants were grown for three weeks before starting ligand application. Plants were divided in four groups in which up to twelve individual plants per genotype were counted. Each group was treated with different concentrations of methoxyfenozide (10, 50 and, 250 nM) and one group was mock treated (water). Treatments were applied every other day from day 17 (long day) or 24 (short day) for a period of approximately three weeks or until all plants flowered.\nThe observation was done over a period of ninety days from the day of planting. In both short day and long day photoperiod, the homozygous T3 ID14-50 plants exposed to ligand started flowering as early as fourteen days before any null plants and ft mutants while the untreated plants flowered at a similar time with null and ft mutant plants as shown in FIG. 18."}, "[3]": {"tested_on": "Botrytis cinerea", "assay": "Ligand inducible disease resistance screening of detached petunia leaves", "assay_type": "in vivo", "method": "Botrytis cinerea isolation and inoculation. The plant pathogen was isolated from diseased strawberries displaying typical symptomology. A single spore colony was isolated using standard plant pathology methodologies and the ITSI—5.8S rDNA—ITSII locus was amplified and sequenced to validate its identity. The isolate used is 100% identical to more than 20 previously reported B. cinerea isolates in Genbank. For plant inoculation B. cinerea was grown on V8 Agar media under fluorescent light for 2 weeks until the typical grey mass of aerial spores was visible. A section of the colony was placed into 10 mL of sterile DI water and vortexed vigorously to dislodge spores. The resulting solution was filtered through a 70 micron mesh to yield a homogenous spore solution free of mycelia and agar media. The spore solution was spun down and washed 3× in sterile DI water and quantified using a hemocytometer. The solution was diluted in sterile DI water to a final concentration of 200,000 spores/ml. For petunia inoculations, detached leaves were wounded with a sterile forceps (approximately 0.5 mm abrasion) and the wounded site was inoculated with 10 μL of spore solution (2,000 spores/inoculation site). Three leaves/treatment and three wound sites/leaf were inoculated with spore solution for each assay. […]"}}, "data": [{"smiles": "COc1cccc(C(=O)NN(C(=O)c2cc(C)cc(C)c2)C(C)(C)C)c1C", "note": "[methoxyfenozide, 3-methoxy-2-methylbenzoic acid 2-(3,5-dimethylbenzoyl)-2-(1,1-dimethylethyl)hydrazide]", "values": [{"measurement": "expression of barstar", "setting": "[1]", "value": "dramatically increased"}, {"measurement": "flowering of non-flowering IP:FT plants after spray", "setting": "[2]; T1 ID14 plants sprayed with ligand", "value": "induced flowering and allowed for normal seed set"}, {"measurement": "time until treated ID14 plants started bolting", "setting": "[2]; T1 plants not flowering within 3 weeks, 2.5 μM every other day, ft mutant did not", "value": "≤ 5", "unit": "days"}, {"measurement": "time after the first application until ID14 plants started to flower", "setting": "[2]; T2 ID14 plants, ft mutant and untreated ID14 plants did not flower", "value": "Five"}, {"measurement": "flowered earlier than ft mutant plants", "setting": "[2]; homozygous T2 ID14-50 plants, 250 or 2500 nM", "value": "22 to 30", "unit": "days"}, {"measurement": "induction of flowering", "setting": "[2]; homozygous T2 ID14 plants, 250 nM and 2.5 μM every other day", "value": "clearly observed in most homozygous plants"}, {"measurement": "started flowering before any null plants and ft mutants", "setting": "[2]; homozygous T3 ID14-50 plants, 10, 50, 250 nM, short day and long day photoperiod", "value": "fourteen"}, {"measurement": "biomass production (number of rosette leaves as a proxy)", "setting": "[2]; homozygous T3 ID14-50 plants, all ligand concentrations, both photoperiods", "value": "strong decrease"}, {"measurement": "disease resistance of Switch-DCL1/DCL2/GUS hairpin line", "setting": "[3]; leaves on 50 uM in 1% phytoagar, inoculated after 3 days, read 7 days after pathogen inoculation", "value": "ligand induced disease resistance"}, {"measurement": "disease resistance of constitutive DCL-25 (+ control) and non-specific dsRNA line (− control)", "setting": "[3]; presence or absence of 50 uM ligand", "value": "no change in disease resistance"}]}]}
